Experimental data reported in article PMC8275550, “Developmental Neurotoxicity of Fipronil and Rotenone on a Human Neuronal In Vitro Test System” (Neurotoxicity Research, 2021).

Key:
NT2 precursor cells = assay: cells; format: cell-based, human
Protocol: (§1) As established before (Stern et al. [2014]), NT2 precursor cells were seeded in 96-mm bacteriological grade Petri dishes (Greiner, Hamburg, Germany) at a density of 4 × 10^6–5 × 10^6 cells per dish. Within 24 h, cells formed free-floating spherical aggregates of 300–800 µm diameter. On the first day, 10 ml of culture medium was added to each Petri dish. On the next days, medium with 10 μM retinoic acid (RA) was added and changed every 2–3 days by transferring the cell suspension to centrifuge tubes and centrifuge at 200 × g for 7 min. After 9 days in culture, aggregates were gently resuspended using a Pasteur pipette, and seeded at 60,000 cells per well into black 96-well plates with flat transparent bottom (Nunc). Plates were lined with poly-D-lysine and laminin (10 µg/ml each), equipped with silicone stoppers from the Oris Cell Migration Assay (AMS Biotechnology, Abingdon, UK). Cells were allowed to adhere overnight. On the next day, stoppers were pulled leaving a monolayer of cells with a circular hole of 2-mm diameter. […] After one wash in PBS, cells were fixed for 15 min in PFA, washed twice in PBS-T and stained with DAPI (0.5 µg/ml) for 5 min, followed by two washes in PBS. A black 96-hole plastic mask leaving a central circular area of 2-mm diameter for each well was clipped to the bottom of the plate. This allows viewing only those cells that had migrated into the free areas left by the silicone stoppers during seeding (Fig. 1b). Migration was quantified by taking two photographs of each well and measuring the distance of the migration front from the black margin of the mask in using ImageJ. Occasional asymmetries caused by slight inaccuracies of silicone stopper placement were compensated by averaging measurements in four quadrants per well. […] Average null-migration values were subtracted from migrated distance before evaluation.

in vitro = conditions: human
Protocol: Dispersed cells were seeded into two identical poly-D-lysine (10 µg/ml) coated 96-well plates (Corning Costar, Kaiserslautern, Germany) at a density of 10,000 cells per well. Cultures were exposed to up to seven different concentrations of a test compound in DMEM/F12 (six technical replicates per concentration) for 24 h. One plate was immediately fixed in 4% paraformaldehyde in PBS (PFA) for 15 min. After 24 h, while a resazurin reduction assay (2 h) was performed on the other plate. […] Fixed cells were washed in PBS containing 0.1% Triton X100 (PBS-T) and immunolabeled for ß-tubulin type III (monoclonal anti ßtubIII, 1:20,000) using a red fluorescent secondary antibody (goat anti mouse-alexaFluor568, Invitrogen, Germany, 1:250) and DAPI (0.1 µg/ml) as nuclear counterstain. Cells were examined on a Zeiss Axiovert 200 inverted microscope equipped with a CoolSnap camera (Photometrics, Tucson, AZ, USA) and MetaMorph software (Molecular Devices, Sunnyvale, CA, USA), or a Zeiss Axiocam50 mono and Zeiss ZENlite 2.6 blue edition software. Two photographs/well at × 20 magnification were taken. Lengths of all neurites in the field of view were measured in ImageJ (http://imagej.nih.gov/ij) using the ‚segmented line ‘ tool (Fig. 1c) and divided by the number of ß-tubulin III-positive cells.

N2a neuroblastoma cells = test system: N2a neuroblastoma cells; design: method as in Sidiropoulou et al. ([2011]); conditions: ref Sidiropoulou et al. ([2011]); cited from earlier work
[1] = Resazurin reduction viability assay in the cell migration assay; format: cell-based; conditions: human; migration assay, 44 h exposure; > = highest tested concentration; read-out: IC50 general cytotoxicity (resazurin), unspec. EP
Protocol: as §1

NT2 neurons = assay: cells; format: cell-based, human; conditions: Homo sapiens; 24 h exposure; total neurite length/neuron; normalized to solvent control; read-out: IC50 neurite outgrowth (spec. EP)
From the text: Two photographs/well at × 20 magnification were taken.

[2] = test system: differentiating NT2 cells; assay: cells; format: cell-based, human
Protocol: (§2) As established in our previous study (Stern et al. [2014]), cells were seeded into 96-well plates (Corning Costar, Kaiserslautern, Germany) at 80,000 cells per well and incubated in DMEM/F12 with 10 µM retinoic acid (RA) for 4 days (one media change). Cells were incubated for further 5 days (one media change) in media containing 10 µM RA and up to seven concentrations of a test compound. On day 9 (5-day exposition), cell viability was measured using a resazurin reduction assay (Trinova Biochem, Giessen, Germany). Subsequently, cells were fixed for 15 min in PFA and immunolabeled for ß-tubulin type III as above (Fig. 1a). For control purposes, photographs were taken at × 20 magnification as above. Neuronal differentiation was determined by measuring red fluorescence (excitation 568 nm, emission 603 nm) in a multiwell-plate reader (Infinite 200, TECAN, Germany). As a confirmation of the viability data, cell number was also quantified by measuring DAPI fluorescence (excitation 350 nm, emission 488 nm).

SH-SY5Ycells = test system: SH-SY5Ycells; design: method as in Ruangjaroon et al. [2017]; conditions: incompletely differentiated cells; ref Ruangjaroon et al. [2017]; cited from earlier work
[3] = test system: differentiating NT2 cells; assay: Resazurin reduction viability assay in the neuronal differentiation assay; format: cell-based, human; conditions: differentiation assay, 5 days exposure; read-out: IC50 general cytotoxicity (resazurin), unspec. EP
Protocol: as §2

[4] = as above; format: cell-based, human; conditions: human
Protocol: as §2

insect GABAa receptors = test system: insect GABAa receptors; design: method as in Hainzl et al. [1996]; conditions: ref Hainzl et al. [1996]; cited from earlier work
zebrafish embryo = conditions: cited from earlier work
[5] = yes = at least one concentration of rescuing compound with specific endpoint significantly less affected

## N#Cc1nn(-c2c(Cl)cc(C(F)(F)F)cc2Cl)c(N)c1[S+]([O-])C(F)(F)F (centres unmarked) [Fipronil, 5-Amino-1-[2,6-dichloro-4-(trifluoromethyl)phenyl]-4-(trifluoromethylsulfinyl)pyrazole-3-carbonitrile]
NT2 precursor cells; 44 h exposure
  Concentrations with significant differences between viability and migration: ≥ 15.63 µM
NT2 precursor cells; Homo sapiens, 44 h exposure, read-out: IC50 migration (spec. EP)
  IC50: 25.1 µM
NT2 precursor cells; [5]
  Rescue by NAC, migration: yes
In vitro
  IC50: > 62.5 µM
N2a neuroblastoma cells
  Concentration reducing outgrowth of axon-like processes: 1 µM
[1]
  IC50: > 62.5 µM
NT2 neurons
  IC50: > 62.5 µM
[2]; Homo sapiens, NT2, 120 h, 5 days exposure, read-out: IC50 neuronal differentiation (ß-tub III, spec. EP)
  IC50: 14.8 µM
[2]; Homo sapiens, NT2, 15.6 µM fipronil, read-out: ß-tubulin III-immunofluorescence (% of control)
  activity at 15.6 µM: < 50%
[2]; [5]
  Rescue by NAC, neuronal differentiation: yes
SH-SY5Ycells
  Concentration reducing process outgrowth of vimentin-positive protrusions, but not viability: 25 µM
[3]
  IC50: 23.4 µM
[4]; 15.6 µM fipronil, read-out: General viability (% of control)
  viability: > 90%
[4]; differentiation assay, 5 days exposure, read-out: IC50 general cytotoxicity (resazurin), unspec. EP
  IC50: 23.2 µM
Insect GABAa receptors
  Higher affinity to insect GABAa receptors than to vertebrate GABA receptors: more than 100 fold
Zebrafish embryo; via reduction of gene expression for neuron/glia differentiation, ref Park et al. [2020]
  Concentration inhibiting zebrafish neurogenesis: ~ 33 µM
Zebrafish embryo; zebrafish embryo, ref Stehr et al. [2006]
  Concentration disturbing development of motor circuits: 0.7 µM
